# Results published in patent US9572802B2 (Theravance Respiratory Company, LLC, priority 2009, dated 2017).
# Where a name gives a salt, the structure may show the parent alone.
# System: methacholine (MCh)-induced bronchoconstriction
# Test: Rat Einthoven assay: bronchoprotection against methacholine (MCh)-induced bronchoconstriction
# Format: in vivo
# Conditions: 100 μg by inhalation, bronchoprotective effect present
# Experimental: This assay measures the ability of a test compound to provide bronchoprotection against methacholine (MCh)-induced bronchoconstriction in a rat. Male Sprague-Dawley rats (Harlan, Indianapolis, Ind.), weighing between 200 g and 350 g, were used for all studies. Test compound or vehicle (sterile deionized water) were dosed by inhalation (1H) over a 10 min period in a pie shaped inhalation chamber (R+S Molds, San Carlos, Calif.) using 5 mL of dosing solution. […] Rats were dosed with 100 μg of test compound unless otherwise indicated. At predetermined time points, rats were anesthetized with all intraperitoneal (IP) injection of 120 mg/kg inactin (thiobutabarbital). A supplemental dose (40 mg/kg, IP) was administered if the animal responded to physical stimuli (e.g. toe pinch). The surgical site was shaved and a 1-2 cm midline incision of the ventral aspect of the neck was made. The jugular vein was isolated and cannulated with a saline-filled polyethylene catheter (PE-50) to allow IV infusion of MCh. Trachea was dissected free and cannulated with a 14G needle (#NE-014, Small Parts, Miami Lakes, Fla.). After placement of the tracheal cannula, each rat was ventilated using a respirator (Model 683, Harvard Apparatus, Inc., Mass.) set at a stroke volume of 1 mL/100 g body weight (but not exceeding 2.5 mL volume) and a rate of 90 strokes per minute. A T-connector was placed along the respirator expiratory tubing to allow for measurement of changes in ventilation pressure (VP) using a Biopac transducer that was connected to a Biopac […]) pre-amplifier. Body temperature was maintained at 37° C. using a heating pad. Changes in VP were recorded using the Acknowledge Data Collection Software (Santa Barbara, Calif.). Baseline values were collected for at least 2.5 min. Rats were then challenged with non-cumulative intravenous (IV) infusions of 40 and 80 μg/kg MCh. MCh was infused intravenously for 2.5 minutes from a syringe pump (sp210iw, World Precision Instruments, Inc., Sarasota, Fla.) at a rate of 2 mL/kg/min, with a 2 minute interval between the two doses of MCh. Changes in ventilation pressure (cm H2O) in treated animals are expressed as % inhibition of MCh response relative to control animals. Other bronchoconstrictors, such as histamine and acetylcholine, can be used in place of MCh in this assay. Additonally, guinea pigs can be used instead of rats. […] Inhibition greater than or equal to 30 percent at 24 h is indicative of a long duration of action.
Structure (SMILES),Broncho. at 24 h,"inhibition in vivo at 0.1 mg (inhaled or nasal, 24 h, read-out: Broncho. at 24 h) [%]"
"CC(Cc1cccc(CC(=O)NCCCCN(C)C(=O)CCN2CCC(OC(=O)Nc3ccccc3-c3ccccc3)CC2)c1)NC[C@H](O)c1ccc(O)c2[nH]c(=O)ccc12 (stereo in doubt) [Compound I-23, Biphenyl-2-ylcarbamic acid 1-[2-({4-[2-(3-{(R)-2-[(R)-2-hydroxy-2-(8-hydroxy-2-oxo-1,2-dihydroquinolin-5-yl)ethylamino]propyl}phenyl)acetylamino]butyl}methylcarbamoyl)ethyl]piperidin-4-yl ester ditrifluoroacetic acid salt]","Yes (Bronchoprotective effect present at 24 h, e.g., ≧30% inhibition of the MCh response at 24 h in the rat Einthoven assay (100 μg))",
"Cc1cc(CNC[C@H](O)c2ccc(O)c3[nH]c(=O)ccc23)ccc1NC(=O)CCCN(C)C(=O)CCN1CCC(OC(=O)Nc2ccccc2-c2ccccc2)CC1 [Compound I-2, Biphenyl-2-ylcarbamic acid 1-(2-{[3-(4-{[(R)-2-hydroxy-2-(8-hydroxy-2-oxo-1,2-dihydroquinolin-5-yl)ethylamino]methyl}-2-methylphenylcarbamoyl)propyl]methylcarbamoyl}ethyl)piperidin-4-yl ester ditrifluoroacetic acid salt]",No,
"CN(CCCC(=O)Nc1cccc(CCNC[C@H](O)c2ccc(O)c3[nH]c(=O)ccc23)c1)C(=O)CCN1CCC(OC(=O)Nc2ccccc2-c2ccccc2)CC1 [Compound I-7, Biphenyl-2-ylcarbamic Acid 1-(2-{[3-(3{2-[(R)-2-Hydroxy-2-(8-hydroxy-2-oxy-1,2-dihydroquinolin-5-yl)ethylamino]ethyl}phenylcarbamoyl)-propyl]methylcarbamoyl}ethyl)piperidin-4-yl Ester Ditrifluoroacetic Acid Salt]","Yes (Bronchoprotective effect present at 24 h, e.g., ≧30% inhibition of the MCh response at 24 h in the rat Einthoven assay (100 μg))",
"C[C@H](Cc1cccc(CC(=O)NCCCN(C)C(=O)CCN2CCC(OC(=O)Nc3ccccc3-c3ccccc3)CC2)c1)NC[C@H](O)c1ccc(O)c2[nH]c(=O)ccc12 [Compound I-12, Biphenyl-2-ylcarbamic acid 1-[2-({3-[2-(3-{(R)-2-[(R)-2-hydroxy-2-(8-hydroxy-2-oxo-1,2-dihydroquinolin-5-yl)ethylamino]propyl}phenyl)acetylamino]propyl}methylcarbamoyl)ethyl]piperidin-4-yl ester ditrifluoroacetic acid salt]",No,
"C[C@@H](Cc1cccc(CC(=O)NCCCN(C)C(=O)CCN2CCC(OC(=O)Nc3ccccc3-c3ccccc3)CC2)c1)NC[C@H](O)c1ccc(O)c2[nH]c(=O)ccc12 [Compound I-13, Biphenyl-2-ylcarbamic Acid 1[2-({3-[2-(3-{(S)-2-[(R)-2-Hydroxy-2-(8-hydroxy-2-oxo-1,2-dihydroquinolin-5-yl)ethylamino]propyl}phenyl)acetylaminol]-propyl}methylcarbamoyl)ethyl]piperidin-4-yl Ester Ditrifluoroacetic Acid Salt]","Yes (Bronchoprotective effect present at 24 h, e.g., ≧30% inhibition of the MCh response at 24 h in the rat Einthoven assay (100 μg))",
CN(C(=O)CCN1CCC(OC(=O)Nc2ccccc2-c2ccccc2)CC1)c1cccc(C(=O)Nc2ccc(CNC[C@H](O)c3ccc(O)c4[nH]c(=O)ccc34)cc2)c1 [Compound I-25],,> 30
"Cc1ccc(C(=O)Nc2ccc(CC(C)NC[C@H](O)c3ccc(O)c4[nH]c(=O)ccc34)cc2)cc1N(C)C(=O)CCN1CCC(OC(=O)Nc2ccccc2-c2ccccc2)CC1 (stereo partly drawn) [Compound I-41, Biphenyl-2-ylcarbamic acid 1-(2-{[5-(4-{2-[(R)-2-hydroxy-2-(8-hydroxy-2-oxo-1,2-dihydroquinolin-5-yl)-ethylamino]propyl}phenylcarbamoyl)-2-methylphenyl]-methylcarbamoyl}ethyl)piperidin-4-yl ester]",No,
"CN(C(=O)CCN1CCC(OC(=O)Nc2ccccc2-c2ccccc2)CC1)c1cccc(CC(=O)Nc2cccc(CCNC[C@H](O)c3ccc(O)c4[nH]c(=O)ccc34)c2)c1 [Compound I-62, ditrifluoroacetic acid salt]","Yes (Bronchoprotective effect present at 24 h, e.g., ≧30% inhibition of the MCh response at 24 h in the rat Einthoven assay (100 μg))",
